{"source": "paper PMC12980401", "about": "(Science translational medicine, 2025)", "key": {"chow-fed rats [1]": {"tested_on": "chow-fed rats", "assay": "Counterregulatory response to hindbrain glucoprivation", "format": "in vivo, rat"}, "chow-fed rats [2]": {"tested_on": "chow-fed rats", "format": "in vivo, rat"}, "HFD-fed rats": {"tested_on": "HFD-fed rats", "format": "in vivo, rat"}, "[3]": {"tested_on": "chow-fed and HFD-fed rats", "assay": "Oral glucose tolerance test", "format": "in vivo, rat", "settings": "for Glucose-stimulated plasma insulin: OGTT"}, "musk shrew": {"tested_on": "musk shrew", "assay": "Food intake, body weight and emesis in musk shrews", "format": "in vivo, Suncus murinus", "settings": "intraperitoneal 5 mg/kg; for Food intake in musk shrews: n = 9"}, "Half-life in rat serum": {"assay": "Half-life in rat serum", "format": "in vitro ADME"}, "rats": {"tested_on": "rats", "assay": "Kaolin intake", "settings": "fourth ICV 20 μg"}, "chow-fed rats [4]": {"tested_on": "chow-fed rats", "assay": "Telemetry of core body temperature, physical activity and heart rate", "settings": "lateral ventricle, high dose ODN (100 μg), TDN 20 and 100 μg"}, "[5]": {"tested_on": "chow-fed and HFD-fed rats", "assay": "Insulin tolerance test", "format": "in vivo, rat", "settings": "fourth ICV TDN 200 μg/2 μl"}, "lean and DIO mice": {"tested_on": "lean and DIO mice", "assay": "Food intake and body weight after intraperitoneal injection in mice", "format": "in vivo, mouse"}, "DIO mice": {"tested_on": "DIO mice", "assay": "Hyperinsulinemic-euglycemic clamp in DIO mice", "format": "in vivo, mouse", "settings": "single intraperitoneal 5 mg/kg before insulin infusion, vehicle 18%"}, "[6]": {"settings": "HFD-fed rats, lateral ventricle 200 μg/2 μl"}, "[7]": {"settings": "HFD-fed rats, fourth ICV TDN 200 μg/2 μl"}}}
{"molecule": "O=C[C@H](O)[C@@H](O)[C@H](O)[C@H](S)CO", "note": "[5-TG, 5-thio-D-glucose]", "values": [{"measurement": "Food intake after glucoprivic agent", "setting": "chow-fed rats [1]; lean rats, fourth ICV 210 μg at dark cycle onset, versus vehicle", "value": "increased food intake at 1 and 24 hours after injection"}]}
{"molecule": "octadecaneuropeptide [ODN]", "values": [{"measurement": "24-hour body weight change", "setting": "chow-fed rats [2]; lean chow-fed rats, fourth ICV ODN 0.2, 2 and 20 μg", "value": "without affecting 24-hour body weight"}, {"measurement": "Time to consume the first bout of food (latency)", "setting": "chow-fed rats [2]; lean chow-fed rats, fourth ICV, 2 μg", "value": "delayed"}, {"measurement": "Size of the first meal", "setting": "chow-fed rats [2]; lean chow-fed rats, fourth ICV, 20 μg", "value": "reduced"}, {"measurement": "24-hour food intake and body weight", "setting": "HFD-fed rats; HFD-maintained rats, fourth ICV, 20 μg", "value": "decreasing 24-hour food intake and body weight"}, {"measurement": "Meal duration 6 to 12 hours postinjection", "setting": "HFD-fed rats; HFD-maintained rats, fourth ICV, highest dose (20 μg)", "value": "decreased meal duration"}, {"measurement": "Plasma glucagon after intraperitoneal insulin", "setting": "chow-fed rats [1]; fourth ICV ODN 20 μg 15 min before ip insulin 0.75 U/kg, chow-fed rats", "value": "lowered plasma glucagon concentrations 30 min after intraperitoneal insulin"}, {"measurement": "5-TG-induced hyperglycemia (1-hour blood glucose)", "setting": "chow-fed rats [1]; lean rats, fourth ICV ODN 20 μg pretreatment before 5-TG 210 μg", "value": "blunted 5-TG–induced hyperglycemia 1 hour after injection"}, {"measurement": "5-TG-mediated hyperphagia", "setting": "chow-fed rats [1]; lean rats, fourth ICV ODN 20 μg/2 μl pretreatment before 5-TG 210 μg", "value": "suppressed 5-TG–mediated hyperphagia at the 4-hour time point"}, {"measurement": "Circulating free fatty acids after 5-TG", "setting": "chow-fed rats [1]; plasma 30 min, fourth ICV ODN 20 μg before 5-TG", "value": "suppressed by hindbrain ODN pretreatment"}, {"measurement": "Glucose tolerance (OGTT)", "setting": "[3]; DIO rats, fourth ICV 200 μg", "value": "markedly improved"}, {"measurement": "OGTT area under the curve", "setting": "[3]; lean rats, fourth ICV 200 μg (higher dose)", "value": "reduced the overall area under the curve"}, {"measurement": "Glucose-stimulated plasma insulin", "setting": "[3]; lean rats, fourth ICV 200 μg", "value": "without enhancing glucose-stimulated plasma insulin"}, {"measurement": "24-hour body weight change in musk shrews", "setting": "musk shrew", "value": "without affecting body weight at 24 hours"}, {"measurement": "Emetic episodes in musk shrews", "setting": "musk shrew", "value": "caused no emetic episodes"}, {"measurement": "Food intake in musk shrews", "setting": "musk shrew", "value": "suppressed food intake at 6 and 24 hours after injection"}, {"measurement": "Half-life in rat serum", "setting": "Half-life in rat serum; rat serum, average half-life (fig. S6, I and J)", "value": 12.4, "unit": "min"}, {"measurement": "Kaolin intake", "setting": "rats", "value": "did not cause kaolin intake"}, {"measurement": "Telemetry variables at individual hours", "setting": "chow-fed rats [4]", "value": "decreased locomotor activity at hour 8"}]}
{"molecule": "tridecaneuropeptide [TDN]", "values": [{"measurement": "24-hour body weight", "setting": "HFD-fed rats; [6]", "value": "without an impact on body weight"}, {"measurement": "24-hour food intake (HFD)", "setting": "HFD-fed rats; [6]", "value": "suppressed 24-hour food intake"}, {"measurement": "OGTT AUC", "setting": "[3]; [7]", "value": "lowered the OGTT AUC"}, {"measurement": "Glucose-stimulated plasma insulin", "setting": "[3]; [7]", "value": "without heightening glucose-stimulated plasma insulin concentrations"}, {"measurement": "Insulin sensitivity during insulin tolerance test", "setting": "[5]", "value": "improved by fourth ICV TDN"}, {"measurement": "24-hour body weight change in musk shrews", "setting": "musk shrew", "value": "without altering 24-hour weight change"}, {"measurement": "Food intake in musk shrews", "setting": "musk shrew", "value": "suppressed 24-hour food intake"}, {"measurement": "Half-life in rat serum", "setting": "Half-life in rat serum; rat, serum", "value": 21.2, "unit": "min"}, {"measurement": "Body weight loss over 9 days", "setting": "lean and DIO mice; DIO mice, daily intraperitoneal 5 mg/kg for 9 days", "value": 4.7, "unit": "%"}, {"measurement": "Daily HFD intake", "setting": "lean and DIO mice; DIO mice, daily intraperitoneal 5 mg/kg for 9 days, n = 6", "value": "suppressed HFD intake immediately on day 1"}, {"measurement": "24-hour food intake and body weight", "setting": "lean and DIO mice; lean mice, peripheral administration 5 mg/kg", "value": "no effect in lean mice"}, {"measurement": "Suppression of endogenous glucose appearance (Ra) relative to baseline", "setting": "DIO mice", "value": 57, "unit": "%"}]}
{"molecule": "recombinant DBI protein: recombinant diazepam binding inhibitor protein, parent of ODN (protein, UniProt P07108 2-87, looked up) Acyl-CoA-binding protein: SQAEFEKAAEEVRHLKTKPSDEEMLFIYGHYKQATVGDINTERPGMLDFTGKAKWDAWNELKGTSKEDAMKAYINKVEELKKKYGI", "values": [{"measurement": "Chow intake", "setting": "chow-fed rats [2]; chow-maintained rats, fourth ICV 2 μg/2 μl", "value": "suppressed chow intake at 6 and 12 hours postinjection"}, {"measurement": "HFD intake", "setting": "HFD-fed rats; HFD-maintained rats, fourth ICV 2 μg/2 μl", "value": "without affecting HFD intake"}]}
